Molecules are shown by their SMILES. Values joined by “and” are separate entries in the source; they are usually repeats but may differ in a detail not shown here. Identical values can stand only once.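 Where inhibition never reached the appropriate level, the endpoint shown equals the highest concentration tested. Otherwise, values were interpolated linearly from a five-concentration, 48-hour dose response in 96-well plates. GI50 marks 50% less growth. The concentration for full growth arrest is given as TGI.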 Bounds are passed on as bounds.

One experiment has as its system ACHN renal. As to the kind of experiment: inhibition of tumour cell growth, NCI panel, 48 h.
`CC1=CCCC(OC(N)=O)C1` (configuration not stated) yielded a TGI of over 100 µM.
Compound `c1ccc(-c2nnc(-c3nn(-c4ccccc4)c4nc5ccccc5nc34)o2)cc1` came in with a TGI of over 100 µM.
`COc1ccc(N=Cc2cc(OC)c(OC)c(OC)c2)cc1` returned a TGI of over 100 µM.
`COc1cc([C@@H]2c3cc4c(cc3[C@@H](NC(=O)c3cccc([N+](=O)[O-])c3)C3COC(=O)[C@@H]32)OCO4)cc(OC)c1O` (some centres not stated) showed a TGI of 1.62 µM.
On the same count and under the same terms, for `O=C1/C(=C/c2ccccc2)CN(C(=O)Oc2ccc(Cl)cc2)C/C1=C\c1ccccc1` the value was 8.86 µM; for `CC1=C[C@@H]2Cc3occc3C(C)(C)[C@@H]2CC1`, 29.4 µM; for `O=C(O)c1cc(S(=O)(=O)N=NC=C2c3ccccc3N(O)c3ccccc32)ccc1O`, 59.6 µM.
In the case of `C/C(=N\NC(N)=S)c1ccc(C)cc1C`, the TGI was over 100 µM.
Still for that read-out and setting: for `COc1ccc(/C=C(/C(=O)O)c2cc(OC)c(OC)c(OC)c2)cc1` the value was over 100 µM.
Still for that read-out and setting: then `OCc1c(-c2cccc3ccccc23)sc(-c2cccc3ccccc23)c1CO`, with 25.1 µM; and `O=c1c(Cl)c(Cl)cnn1-c1ccccc1`, with 11.6 µM and 13.5 µM.
The same measure, in the same setting: then `OCCNCO`, with over 100 µM.
`O=C(N/N=C/c1cccc(O)c1O)N/N=C/c1cccc(O)c1O` returned a TGI of over 100 µM.
The compound `COc1cc2c(c(O)c1C)C(=O)C(Cl)=CC2=O` displayed a TGI of 13.9 µM.
Regarding `C[Si](C)(C)c1ccc(CC2(Cc3ccc([Si](C)(C)C)cc3)CCNC2)cc1`, the TGI worked out at 9.37 µM.

The subject of another experiment is SK-MEL-2 melanoma. The experiment is described as follows: inhibition of tumour cell growth, NCI panel, 48 h.
As for `CC1=CCCC(OC(N)=O)C1` (configuration not stated), the TGI is over 100 µM.
For `c1ccc(-c2nnc(-c3nn(-c4ccccc4)c4nc5ccccc5nc34)o2)cc1`, the TGI is over 100 µM.
Regarding `COc1ccc(N=Cc2cc(OC)c(OC)c(OC)c2)cc1`, the TGI is over 100 µM.
On the same count and under the same terms, then `COc1cc([C@@H]2c3cc4c(cc3[C@@H](NC(=O)c3cccc([N+](=O)[O-])c3)C3COC(=O)[C@@H]32)OCO4)cc(OC)c1O` (some centres not stated), with 7.23 µM; and `O=C1/C(=C/c2ccccc2)CN(C(=O)Oc2ccc(Cl)cc2)C/C1=C\c1ccccc1`, with 16.5 µM; and `CC1=C[C@@H]2Cc3occc3C(C)(C)[C@@H]2CC1`, with 24.5 µM.
On the same count and under the same terms, for `O=C(O)c1cc(S(=O)(=O)N=NC=C2c3ccccc3N(O)c3ccccc32)ccc1O` the value was 64.2 µM.
Compound `C/C(=N\NC(N)=S)c1ccc(C)cc1C` had a TGI of over 100 µM.
Still for that read-out and setting: for `COc1ccc(/C=C(/C(=O)O)c2cc(OC)c(OC)c(OC)c2)cc1` the value was over 100 µM.
As for `OCc1c(-c2cccc3ccccc23)sc(-c2cccc3ccccc23)c1CO`, the TGI was 28.2 µM.
Consider `O=c1c(Cl)c(Cl)cnn1-c1ccccc1`, for which the TGI was 15.5 µM and 14.5 µM.
The same measure, in the same setting: then `OCCNCO`, with over 100 µM; and `O=C(N/N=C/c1cccc(O)c1O)N/N=C/c1cccc(O)c1O`, with over 100 µM; and `COc1cc2c(c(O)c1C)C(=O)C(Cl)=CC2=O`, with 31.2 µM.
On the same count and under the same terms, then `C[Si](C)(C)c1ccc(CC2(Cc3ccc([Si](C)(C)C)cc3)CCNC2)cc1`, with 3.41 µM.

In the next experiment the test system is SNB-78 CNS. As to the kind of experiment: inhibition of tumour cell growth, NCI panel, 48 h.
Turning to `CC1=CCCC(OC(N)=O)C1` (configuration not stated), the TGI is over 100 µM.
Still for that read-out and setting: for `c1ccc(-c2nnc(-c3nn(-c4ccccc4)c4nc5ccccc5nc34)o2)cc1` the value was over 100 µM; for `COc1ccc(N=Cc2cc(OC)c(OC)c(OC)c2)cc1`, over 100 µM; for `COc1cc([C@@H]2c3cc4c(cc3[C@@H](NC(=O)c3cccc([N+](=O)[O-])c3)C3COC(=O)[C@@H]32)OCO4)cc(OC)c1O` (some centres not stated), over 100 µM.
Same read-out and setting: then `O=C1/C(=C/c2ccccc2)CN(C(=O)Oc2ccc(Cl)cc2)C/C1=C\c1ccccc1`, with over 26.8 µM; and `CC1=C[C@@H]2Cc3occc3C(C)(C)[C@@H]2CC1`, with 66.6 µM; and `O=C(O)c1cc(S(=O)(=O)N=NC=C2c3ccccc3N(O)c3ccccc32)ccc1O`, with 96.5 µM.
The same measure, in the same setting: for `C/C(=N\NC(N)=S)c1ccc(C)cc1C` the value was over 100 µM; for `COc1ccc(/C=C(/C(=O)O)c2cc(OC)c(OC)c(OC)c2)cc1`, over 100 µM.
Regarding `OCc1c(-c2cccc3ccccc23)sc(-c2cccc3ccccc23)c1CO`, the TGI was 31.5 µM.
Take `O=c1c(Cl)c(Cl)cnn1-c1ccccc1`: the TGI was 20.8 µM.
On the same count and under the same terms, for `OCCNCO` the value was over 100 µM; for `O=C(N/N=C/c1cccc(O)c1O)N/N=C/c1cccc(O)c1O`, over 100 µM.
The same measure, in the same setting: then `COc1cc2c(c(O)c1C)C(=O)C(Cl)=CC2=O`, with 17.4 µM.
For `C[Si](C)(C)c1ccc(CC2(Cc3ccc([Si](C)(C)C)cc3)CCNC2)cc1`, the TGI stood at 8.87 µM.

The subject of another experiment is OVCAR-3 ovarian. As to the kind of experiment: inhibition of tumour cell growth, NCI panel, 48 h.
For the compound `CC1=CCCC(OC(N)=O)C1` (configuration not stated), the TGI is over 100 µM.
The same measure, in the same setting: for `c1ccc(-c2nnc(-c3nn(-c4ccccc4)c4nc5ccccc5nc34)o2)cc1` the value was over 100 µM.
For the compound `COc1ccc(N=Cc2cc(OC)c(OC)c(OC)c2)cc1`, the GI50 was over 100 µM and the TGI is over 100 µM.
As to `COc1cc([C@@H]2c3cc4c(cc3[C@@H](NC(=O)c3cccc([N+](=O)[O-])c3)C3COC(=O)[C@@H]32)OCO4)cc(OC)c1O` (some centres not stated), the TGI was determined as 27.9 µM.
The same measure, in the same setting: then `O=C1/C(=C/c2ccccc2)CN(C(=O)Oc2ccc(Cl)cc2)C/C1=C\c1ccccc1`, with 10.6 µM.
On the same count and under the same terms, for `CC1=C[C@@H]2Cc3occc3C(C)(C)[C@@H]2CC1` the value was 31.5 µM; for `O=C(O)c1cc(S(=O)(=O)N=NC=C2c3ccccc3N(O)c3ccccc32)ccc1O`, over 100 µM; for `C/C(=N\NC(N)=S)c1ccc(C)cc1C`, over 100 µM.
As for `COc1ccc(/C=C(/C(=O)O)c2cc(OC)c(OC)c(OC)c2)cc1`, the TGI worked out at 64.1 µM.
The same measure, in the same setting: then `OCc1c(-c2cccc3ccccc23)sc(-c2cccc3ccccc23)c1CO`, with 26.5 µM.
Still for that read-out and setting: for `O=c1c(Cl)c(Cl)cnn1-c1ccccc1` the value was 4.22 µM and 3.94 µM.
Still for that read-out and setting: for `OCCNCO` the value was over 100 µM; for `O=C(N/N=C/c1cccc(O)c1O)N/N=C/c1cccc(O)c1O`, 8.8 µM.
With `COc1cc2c(c(O)c1C)C(=O)C(Cl)=CC2=O`, the TGI was determined as 24.3 µM.
The same measure, in the same setting: for `C[Si](C)(C)c1ccc(CC2(Cc3ccc([Si](C)(C)C)cc3)CCNC2)cc1` the value was 3.93 µM.

A further experiment relates to SW-620 colon. The experiment is described as follows: inhibition of tumour cell growth, NCI panel, 48 h.
`CC1=CCCC(OC(N)=O)C1` (configuration not stated) registered a TGI of over 100 µM.
Still for that read-out and setting: for `c1ccc(-c2nnc(-c3nn(-c4ccccc4)c4nc5ccccc5nc34)o2)cc1` the value was over 100 µM; for `COc1ccc(N=Cc2cc(OC)c(OC)c(OC)c2)cc1`, 30 µM; for `COc1cc([C@@H]2c3cc4c(cc3[C@@H](NC(=O)c3cccc([N+](=O)[O-])c3)C3COC(=O)[C@@H]32)OCO4)cc(OC)c1O` (some centres not stated), 24.3 µM.
Regarding `O=C1/C(=C/c2ccccc2)CN(C(=O)Oc2ccc(Cl)cc2)C/C1=C\c1ccccc1`, the TGI worked out at 2.77 µM.
On the same count and under the same terms, for `CC1=C[C@@H]2Cc3occc3C(C)(C)[C@@H]2CC1` the value was 31.8 µM.
`O=C(O)c1cc(S(=O)(=O)N=NC=C2c3ccccc3N(O)c3ccccc32)ccc1O` gave a TGI of over 100 µM.
`C/C(=N\NC(N)=S)c1ccc(C)cc1C`: the TGI is over 100 µM.
Same read-out and setting: then `COc1ccc(/C=C(/C(=O)O)c2cc(OC)c(OC)c(OC)c2)cc1`, with over 100 µM; and `OCc1c(-c2cccc3ccccc23)sc(-c2cccc3ccccc23)c1CO`, with 29.2 µM.
Regarding `O=c1c(Cl)c(Cl)cnn1-c1ccccc1`, the GI50 was 2 µM and the TGI was 5.5 µM.
The compound `OCCNCO` displayed a TGI of over 100 µM.
Take `O=C(N/N=C/c1cccc(O)c1O)N/N=C/c1cccc(O)c1O`: the TGI was over 100 µM.
For `COc1cc2c(c(O)c1C)C(=O)C(Cl)=CC2=O`, the TGI worked out at 8.29 µM.
The compound `C[Si](C)(C)c1ccc(CC2(Cc3ccc([Si](C)(C)C)cc3)CCNC2)cc1` showed a TGI of 3.38 µM.

The record behind these values is PubChem BioAssay (NCI).
